Measured values as given in US12319655B2, “RAF kinase inhibitors and methods of use thereof” (Deciphera Pharmaceuticals, LLC, priority 2021, dated 2025).

What was measured:
[1] = molecular target: B-Raf kinase (SEQ. ID NO: 2) (Homo sapiens (Human), UniProt P15056); assay: Biochemical Assay for B-Raf (1); conditions: Table J, assay version (1); read-out: BRAF (1) IC50
Outline: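 Continuous PK/LDH-coupled NADH oxidation assay, A340 read for 6 h at 30° C., with 0.13 nM B-Raf, 30.1 nM MEK substrate and 1 mM ATP in Tris pH 7.5, MgCl2, DTT, detergents, 1% DMSO. Rate taken from 4–5 h window; percent inhibition vs no-compound and known-inhibitor controls; four-parameter fit gives IC50.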

[2] = molecular target: C-Raf kinase (SEQ. ID NO: 3) (Homo sapiens (Human), UniProt P04049, Y340D/Y341D); assay: Biochemical Assay for C-Raf (1); conditions: Table J, assay version (1); read-out: CRAF (1) IC50
Outline: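 Coupled pyruvate kinase/LDH assay tracking NADH oxidation at 340 nm, with 0.43 nM C-Raf, 30.1 nM MEK and 1 mM ATP in pH 7.5 Tris buffer (15 mM MgCl2, 1% DMSO final). Read continuously for 6 h at 30 °C, rate taken from the 4–5 h window. IC50 from four-parameter fit of percent inhibition.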

A375 cells = assay: A375 Cell Proliferation Assay (1); format: cell-based; conditions: Homo sapiens, A-375
Outline: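 Resazurin fluorescence (excitation 540 nm, emission 600 nm, after a further 5-6 h) gave IC50s from triplicate compound dilution series.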

Miapaca-2 cells = assay: MiaPaca-2 Cell Proliferation Assay (1); format: cell-based; conditions: Homo sapiens, MIA PaCa-2, single agent, read-out: MiaPaca2 (1) IC50
Protocol: MiaPaca-2 Cell Proliferation Assay (1)
Miapaca-2 cells (catalog #CRL-1420) are obtained from the American Type Culture Collect (ATTC, Manassas, VA). Briefly, cells were grown in DMEM supplemented with 10% characterized fetal bovine serum (Invitrogen, Carlsbad, CA), 2.5% New Zealand sourced horse serum and 1% Penicillin/Streptomycin/L-Glutamine at 37° C., 5% CO2, and 95% humidity. Cells are expanded until reaching 70-95% confluency at which point they are sub-cultured or harvested for assay use. A serial dilution of test compound is dispensed into a 96-well black clear bottom plate in triplicate. Three thousand cells are added per well in 200 μL complete growth medium in the 96-well plate. Plates are incubated for 67-72 h at 37° C., 5% CO2, and 95% humidity. At the end of the incubation, 40 μL of a 440 μM solution of resazurin (Sigma, St. Louis, MO) in PBS is added to each well of the plate and plates are incubated for an additional 5-6 h at 37° C., 5% CO2, and 95% humidity. Plates are read on a Synergy2 or equivalent reader (Biotek, Winooski VT) using an excitation of 540 nm and an emission of 600 nm. Data is analyzed using Prism software (GraphPad, San Diego, CA) to calculate IC50 values.

Sequence of C-Raf kinase (SEQ. ID NO: 3) (P04049 307-648 Y340D/Y341D): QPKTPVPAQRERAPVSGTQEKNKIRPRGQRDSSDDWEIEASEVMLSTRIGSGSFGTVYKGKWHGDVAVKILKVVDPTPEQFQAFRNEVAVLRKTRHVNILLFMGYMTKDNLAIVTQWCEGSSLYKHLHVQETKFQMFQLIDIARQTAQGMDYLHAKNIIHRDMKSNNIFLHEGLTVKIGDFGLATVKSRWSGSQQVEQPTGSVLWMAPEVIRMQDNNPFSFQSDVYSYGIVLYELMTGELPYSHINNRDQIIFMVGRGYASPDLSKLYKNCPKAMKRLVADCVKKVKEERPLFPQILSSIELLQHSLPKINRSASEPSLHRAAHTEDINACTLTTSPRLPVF
Sequence of B-Raf kinase (SEQ. ID NO: 2) (P15056 416-766): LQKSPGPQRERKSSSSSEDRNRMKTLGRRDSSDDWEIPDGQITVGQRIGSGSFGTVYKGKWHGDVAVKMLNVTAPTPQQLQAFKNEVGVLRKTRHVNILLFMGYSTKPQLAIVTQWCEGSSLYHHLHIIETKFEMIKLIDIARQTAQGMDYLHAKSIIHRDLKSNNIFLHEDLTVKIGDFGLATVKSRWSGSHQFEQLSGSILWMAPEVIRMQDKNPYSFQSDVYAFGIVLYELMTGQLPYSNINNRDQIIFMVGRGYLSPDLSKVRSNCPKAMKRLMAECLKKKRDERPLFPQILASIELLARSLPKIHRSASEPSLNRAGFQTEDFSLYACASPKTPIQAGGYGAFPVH

| Compound | IC50 [1] [nM] | IC50 [2] [nM] | IC50 (A375 cells) [nM] | IC50 (Miapaca-2 cells) [nM] |
| --- | --- | --- | --- | --- |
| Cc1cc(F)c(NC(=O)c2ccnc(C(F)(F)F)c2)cc1-c1ccnc(-c2ccnc(NC(=O)CN(C)C)c2)c1 [Example 7] | ≤ 100 | ≤ 100 | 500 to 1000 | 1000 to 10000 |
| CC(=O)Nc1cc(-c2cccc(-c3cc(NC(=O)c4ccnc(C(F)(F)F)c4)c(F)cc3C)c2)ncn1 [Example 114] | ≤ 100 | ≤ 100 | ≤ 100 | 1000 to 10000 |
| CNc1cc(-c2cccc(-c3cc(NC(=O)c4ccnc(C(C)(C)C#N)c4)ccc3C)c2)ncn1 [Example 160] | ≤ 100 | ≤ 100 | 100 to 500 | 1000 to 10000 |
| CC(=O)Nc1cc(-c2nccc(-c3cc(NC(=O)c4ccnc(C(F)(F)F)c4)cnc3C)n2)ccn1 [Example 157] | ≤ 100 | ≤ 100 | 1000 to 10000 | 1000 to 10000 |
| Cc1ncc(NC(=O)c2ccnc(C(C)(C)C#N)c2)cc1-c1cccc(-c2ccnc3c2CC(=O)N3)c1 [Example 105] | 100 to 500 | ≤ 100 | 1000 to 10000 | 1000 to 10000 |
| Cc1cc(F)c(NC(=O)c2ccnc(C(C)(C)C#N)c2)cc1-c1ccnc(-c2ccnc(NC(=O)C3CC3)c2)n1 [Example 179] | ≤ 100 | ≤ 100 | ≤ 100 | 1000 to 10000 |
| Cc1ncc(NC(=O)c2ccnc(C(C)(C)C#N)c2)cc1-c1cccc(-c2ncnc3c2CC(=O)N3)c1 [Example 110] | 100 to 500 | 100 to 500 | 1000 to 10000 | 1000 to 10000 |
| Cc1cc(F)c(NC(=O)c2ccnc(C(C)(C)C#N)c2)cc1-c1ccnc(-c2ccnc(NC=O)c2)c1 [Example 104] | ≤ 100 | ≤ 100 | ≤ 100 | 1000 to 10000 |
| Cc1ccc(NC(=O)c2ccnc(C(C)(C)C#N)c2)cc1-c1cncc(-c2ccnc(NC=O)c2)n1 [Example 161] | ≤ 100 | ≤ 100 | ≤ 100 | 1000 to 10000 |
| CC(=O)Nc1cc(-c2nccc(-c3cc(NC(=O)c4ccnc(C(F)(F)F)c4)c(F)cc3C)n2)ccn1 [Example 107] | ≤ 100 | ≤ 100 | 100 to 500 | 1000 to 10000 |
| CNC(=O)c1cc(-c2cc(-c3cc(NC(=O)c4ccnc(C(C)(C)C#N)c4)c(F)cc3C)ccn2)ccn1 [Example 176] | 100 to 500 | ≤ 100 | ≤ 100 | 1000 to 10000 |
| CC(=O)Nc1cc(-c2cc(-c3cc(NC(=O)c4ccnc(C(F)(F)F)c4)ccc3C)ccn2)ccn1 [Example 6] | ≤ 100 | ≤ 100 | ≤ 100 | 1000 to 10000 |
| CC(=O)Nc1cc(-c2nccc(-c3cc(NC(=O)c4cnnc(C5CC5)c4)ccc3C)n2)ccn1 [Example 168] | ≤ 100 | ≤ 100 | 500 to 1000 | 1000 to 10000 |
| CNC(=O)c1cc(-c2cncc(-c3cc(NC(=O)c4cccc(C(C)(C)C#N)c4)ccc3C)n2)ccn1 [Example 136] | ≤ 100 | ≤ 100 | ≤ 100 | 1000 to 10000 |
| CNC(=O)c1cc(-c2cccc(-c3cc(NC(=O)c4ccnc(C(C)(C)C#N)c4)ccc3C)c2)ncn1 [Example 171] | ≤ 100 | ≤ 100 | ≤ 100 | 1000 to 10000 |
| CC(=O)Nc1cc(-c2nccc(-c3cc(NC(=O)c4ccnc(C5(C#N)CC5)c4)ccc3C)n2)ccn1 [Example 151] | ≤ 100 | ≤ 100 | ≤ 100 | 1000 to 10000 |
| CC(=O)Nc1cc(-c2nccc(-c3cc(NC(=O)c4cc(C(F)(F)F)ccn4)ccc3C)n2)ccn1 [Example 153] | ≤ 100 | ≤ 100 | ≤ 100 | 1000 to 10000 |
| Cc1ncc(NC(=O)c2ccnc(C(C)(C)C#N)c2)cc1-c1cccc(-c2ncnc3[nH]ncc23)c1 [Example 129] | ≤ 100 | ≤ 100 | 500 to 1000 | 1000 to 10000 |
| Cc1ncc(NC(=O)c2cccc(C(F)(F)F)c2)cc1-c1cccc(-c2ccnc(NC(=O)CC#N)c2)c1 [Example 97] | ≤ 100 | ≤ 100 | 100 to 500 | 1000 to 10000 |
| CNC(=O)c1cc(-c2nccc(-c3cc(NC(=O)c4ccnc(C(C)(C)C#N)c4)c(F)cc3C)n2)ccn1 [Example 166] | 100 to 500 | 100 to 500 | 100 to 500 | 1000 to 10000 |
| COCCNc1cc(-c2cncc(-c3cc(NC(=O)c4ccnc(C(C)(C)C#N)c4)ccc3C)n2)ccn1 [Example 143] | 100 to 500 | ≤ 100 | 1000 to 10000 | 1000 to 10000 |
| Cc1ncc(NC(=O)c2ccnc(C3CC3)c2)cc1-c1cccc(-c2ncnc3[nH]ncc23)c1 [Example 131] | ≤ 100 | ≤ 100 | 1000 to 10000 | 1000 to 10000 |
| CNC(=O)c1cc(-c2cc(-c3cc(NC(=O)c4cccc(C(C)(C)C#N)c4)ccc3C)ccn2)ccn1 [Example 127] | ≤ 100 | ≤ 100 | ≤ 100 | 1000 to 10000 |
| CC(=O)Nc1cc(-c2nccc(-c3cc(NC(=O)c4cccc(C(C)(C)C#N)c4)ccc3C)n2)ccn1 [Example 150] | ≤ 100 | ≤ 100 | ≤ 100 | 1000 to 10000 |
| CNC(=O)c1cc(-c2cncc(-c3cc(NC(=O)c4cc(C(F)(F)F)ccn4)ccc3C)n2)ccn1 [Example 135] | ≤ 100 | ≤ 100 | 500 to 1000 | 1000 to 10000 |

Second part, the molecule after the results:

| IC50 [1] [nM] | IC50 [2] [nM] | IC50 (A375 cells) [nM] | IC50 (Miapaca-2 cells) [nM] | Compound |
| --- | --- | --- | --- | --- |
| ≤ 100 | ≤ 100 | 100 to 500 | 1000 to 10000 | Cc1ccc(NC(=O)c2ccnc(C(F)(F)F)c2)cc1-c1cncc(-c2ccnc(NC(=O)CN(C)C)c2)n1 [Example 100] |
| ≤ 100 | ≤ 100 | ≤ 100 | 1000 to 10000 | CC(=O)Nc1cc(-c2cncc(-c3cc(NC(=O)c4cc(C(F)(F)F)ccn4)ccc3C)n2)ccn1 [Example 124] |
| ≤ 100 | ≤ 100 | ≤ 100 | 1000 to 10000 | Cc1ccc(NC(=O)c2ccnc(C(C)(C)C#N)c2)cc1-c1cncc(-c2ccnc(NC(=O)C3CC3)c2)n1 [Example 112] |
| ≤ 100 | ≤ 100 | ≤ 100 | 1000 to 10000 | CC(=O)Nc1cc(-c2cncc(-c3cc(NC(=O)c4ccnc(C5(C#N)CC5)c4)ccc3C)n2)ccn1 [Example 146] |
| 100 to 500 | 100 to 500 | 1000 to 10000 | 1000 to 10000 | Cc1ccc(NC(=O)c2ccnc(C(C)(C)C#N)c2)cc1-c1cncc(-c2ccnc(C(=O)NC3CC3)c2)n1 [Example 148] |
| ≤ 100 | ≤ 100 | ≤ 100 | 1000 to 10000 | Cc1ccc(NC(=O)c2ccnc(C(C)(C)C#N)c2)cc1-c1cncc(-c2ccnc(NC(=O)CC#N)c2)n1 [Example 154] |
| ≤ 100 | ≤ 100 | ≤ 100 | 1000 to 10000 | Cc1ccc(NC(=O)c2ccnc(C3(C#N)CC3)c2)cc1-c1ccnc(-c2ccnc(NC(=O)C3CC3)c2)n1 [Example 180] |
| ≤ 100 | ≤ 100 | ≤ 100 | 1000 to 10000 | COCC(=O)Nc1cc(-c2cncc(-c3cc(NC(=O)c4ccnc(C(C)(C)C#N)c4)ccc3C)n2)ccn1 [Example 142] |
| ≤ 100 | ≤ 100 | 100 to 500 | 1000 to 10000 | CC(=O)Nc1cc(-c2cncc(-c3cc(NC(=O)c4ccc(Cl)c(C(F)(F)F)c4)ccc3C)n2)ccn1 [Example 121] |
| ≤ 100 | ≤ 100 | ≤ 100 | 1000 to 10000 | Cc1ccc(NC(=O)c2ccnc(C(C)(C)C#N)c2)cc1-c1nccc(-c2ccnc(NC(=O)C3CC3)c2)n1 [Example 169] |
| ≤ 100 | ≤ 100 | 500 to 1000 | 1000 to 10000 | COCC(=O)Nc1cc(-c2cncc(-c3cc(NC(=O)c4ccnc(C(F)(F)F)c4)ccc3C)n2)ccn1 [Example 99] |
| ≤ 100 | ≤ 100 | 1000 to 10000 | 1000 to 10000 | CNC(=O)c1cc(-c2cncc(-c3cc(NC(=O)c4ccnc(C5CC5)c4)ccc3C)n2)ccn1 [Example 139] |
| ≤ 100 | ≤ 100 | 100 to 500 | 1000 to 10000 | Cc1ccc(NC(=O)c2ccnc(C(F)F)c2)cc1-c1cncc(-c2ccnc(NC(=O)C3CC3)c2)n1 [Example 117] |
